In series [1] the test system is ADP-induced platelet aggregation. Put plainly: In vitro antiplatelet aggregation assay, ADP-induced. It counts as cell-based, sheep. The note with it: Ovis aries, equivalent ASA concentration of 0.1 mM, read-out: Percentage of inhibition of ADP-induced platelet aggregation. As to the method:
(§1) The final platelet count was adjusted to 2 × 10^8 platelets/mL. 150 µL of PRP was seeded in 96-well plates and was incubated with 50 µL of various formulations: ASA-RBCVs, ASA-RGD-RBCVs, ASA-cRGD-PEG-RBCVs or ASA (equivalent ASA concentration of 0.1 mM) in the presence of 10 µL platelet agonist thrombin in PBS (4 µM), arachidonic acid (AA) in PBS (400 µM) or adenosine diphosphate (ADP) in PBS (15 µM). After incubation under shaking at 37° C. for 40 min, the absorbance at 595 nm was measured by a GloMax-Multi Microplate Multimode Reader (Promega, USA). The aggregation percentage was calculated by the equation 2. From the platelet aggregation percentage and comparison to aggregation of PBS without samples, the inhibition percentage was calculated by the equation 3.

In series [2] the test system is AA-induced platelet aggregation. As to the kind of experiment: In vitro antiplatelet aggregation assay, arachidonic acid (AA)-induced. It counts as cell-based, sheep. As to conditions: Ovis aries, equivalent ASA concentration of 0.1 mM, read-out: Percentage of inhibition of AA-induced platelet aggregation. As for the experimental part: as §1
Series [3] relates to thrombin-induced platelet aggregation. Put plainly: In vitro antiplatelet aggregation assay, thrombin-induced. As to conditions: Ovis aries, equivalent ASA concentration of 0.1 mM, read-out: Percentage of inhibition of thrombin-induced platelet aggregation. It counts as cell-based, sheep. As for the experimental part: as §1
The test system of series [4] is thrombin-induced thrombus in sheep blood. As to the kind of experiment: In vitro antithrombotic assay (wet thrombus weight). It counts as cell-based. As to conditions: equivalent ASA 0.1 mM, 37° C., 30 min. As for the experimental part: 200 µL of sheep blood was added into a weighted tube. Then, 50 µL specific formulation (PBS, ASA-RBCVs, ASA-RGD-RBCVs, ASA-cRGD-PEG-RBCVs or ASA at an equivalent ASA concentration of 0.1 mM) was added in the tube, and then 10 µL of thrombin in PBS (4 µM) was added in each well and incubated at 37° C. under shaking for 30 min. Finally, the un-clotted blood was removed to obtain the weight of the wet clotted thrombus.

The subject of series [5] is fibrinogen mediated platelet aggregation in platelet-rich plasma (active αIIbβ3). It counts as cell-based, sheep. As to the method: Binding affinity of free liner RGD or cRGD peptides to activated platelets can be indicated by a half maximal inhibitory concentration (IC50) value, which is the peptide concentration required to inhibit fibrinogen mediated platelet aggregation in platelet-rich plasma (PRP) by 50%. PRP was incubated with various concentrations of liner RGD or cRGD peptides in the presence of platelet agonist, thrombin (4 µM) for 30 min under stirring. The platelet aggregation percentage was determined with a GloMax-Multi Microplate Multimode Reader (Promega, USA) by measuring the absorbance at 595 nm. The platelet aggregation percentage was calculated by the following equation: […]
where Ao is the initial absorbance at 595 nm, and At is the absorbance at 595 nm after incubation.
The percentage platelet aggregation inhibition was calculated by the following equation: […]
where PAPBS is the platelet aggregation in the PRP control in the presence of thrombin and PBS only (no peptides), and PAs is the platelet aggregation in the PRP sample in the presence of thrombin and peptides.

For series [6], the target named is active GPIIb-IIIa (αIIbβ3) integrin on thrombin-activated platelets (sheep). Put plainly: cell-based or functional assay.
Another series has as its system fibrin clot. Put plainly: Fibrin clot lysis, agar plate assay, in the presence of activated platelets. It counts as biochemical. As to conditions: equivalent tPA 1 mg mL^-1, 37° C. overnight, activated platelets present. As for the experimental part:
Fibrin clot lysis by the tPA-loaded vesicles was measured by an agar plate assay. Briefly, 300 mg agar was dissolved in buffer mixture (15 mL of 0.05 M Tris-HCl buffer at pH 7.2 and 5 mL of 0.025 M CaCl2 solution). 50 mg Fibrinogen was dissolved in 10 mL of Tris-HCl buffer (0.05 M, pH 7.2). The agar solution was mixed with the fibrinogen solution, and then 10 µL thrombin (4.0 µM) was added under stirring for 1 min. The resulting mixture was spread carefully on a transparent plastic plate and homogeneous gels were obtained at 37° C. after 3h. […] were created in each plate and 5 µL of plasminogen solution (1 mg mL^-1) was then added into each sample well. PBS buffer, tPA-RBCVs, tPA-RGD-RBCVs, tPA-cRGD-PEG-RBCVs and free tPA (equivalent tPA dose of 1 mg mL^-1) were added into respective sample wells and incubated at 37° C. overnight. The area of the lysed zone in each well was measured to evaluate the degree of fibrin clot lysis.

The test system of the next series is Halo blood clots. Put plainly: Blood clot lysis in a Halo blood clot model. It counts as cell-based, sheep. The note with it: after 45 min of treatment. As for the experimental part:
Briefly, a clotting mixture (5 mL of buffer containing 66 mM Tris-HCl, 130 mM NaCl and 45 mM CaCl2; 5 µL of 1 µM thrombin, pH 7.4) was freshly prepared. In a 96-well microplate, 5 µL of this clotting mixture was placed on one side of the well bottom, then 15 µL of whole blood was added on the opposite side of the well bottom. Clotting was initiated by mixing the two drops with a pipette tip in a circular motion to form a homogenous halo shape of blood around the edge of the well bottom, leaving the centre area empty. The plate was covered and incubated at 37° C. for 30 min. After clot formation, 80 µL tPA-RBCVs, tPA-RGD-RBCVs, tPA-cRGD-PEG-RBCVs and free tPA (equivalent tPA dose of 1 mg mL^-1) were added simultaneously into respective wells containing halo clots. The dissolution of the halo clots was determined with a plate reader GloMax-Multi Microplate Multimode Reader (Promega, USA) by measuring absorbance at 495 nm caused by RBCs progressively covering the centre of the well after clot degradation at 37° C. […] The percentage of clot dissolution was calculated according to the following equation: […]
where As is the absorbance of well at 495 nm after incubation with samples; An is the absorbance of negative control well at 495 nm; Ap is the absorbance of positive control well at 495 nm.

The conditions of series [7]: in circulation, background; cited from earlier work.
For series [8], the target named is T1, active GPIIb-IIIa (αIIbβ3) integrin on thrombin-activated platelets (sheep, UniProt A0ACI6RZ73 32-1033; A0ACI6S117 125-886). Put plainly: cell-based or functional assay.
In series [9] the target is T1, active GPIIb-IIIa (αIIbβ3) integrin on …. As to the kind of experiment: flow cytometry on thrombin-activated platelets; reference is uncoated tPA-RBCVs. As for the experimental part: 2 mL platelets (1.0 × 10⁸ mL⁻¹) were seeded in 6-well plates and activated by incubation with 100 µL thrombin (1 U/mL) for at least 20 min. Inactivated platelets or thrombin-activated platelets were incubated with various FITC-labelled tPA-loaded vesicle formulations (equivalent tPA concentration of 0.2 mg mL⁻¹). Free vesicles, which were not attached to platelets, were removed by centrifugation. Data for 1.0 × 10⁴ gated events were collected and analysed using a BD Fortessa II flow cytometer.
In general terms: A flow cytometer gives signals particle by particle.

Series [10] shares this target. As to the kind of experiment: MFI of confocal images of thrombin-activated platelets; reference is uncoated tPA-RBCVs. As for the experimental part: 2 mL platelets (1.0 × 10⁸ mL⁻¹) were seeded in 6-well plates, with a collagen-coated glass coverslip on the bottom of each well. After 30 min, 100 µL thrombin (1 U/mL) was added onto the platelet-adhered coverslips to ensure activation of platelets at least 20 min. Inactivated platelets or thrombin-activated platelets were incubated with various FITC-labelled tPA-loaded vesicle formulations (equivalent tPA concentration of 0.2 mg mL⁻¹). The platelets were then fixed with 4.0% formaldehyde for 30 min, followed by rinsing with pH 7.4 PBS buffer for three times. Subsequently, the resulting slides were mounted and observed with a Leica SP₅ MP confocal microscope.

Series [11] shares this target. Put plainly: flow cytometry on thrombin-activated platelets; reference is uncoated RBCVs. As for the experimental part:
2 mL platelets (1.0 × 10⁸ mL⁻¹) were seeded in 6-well plates and activated by incubation with 100 µL thrombin (1 U/mL) for at least 20 min. Inactivated platelets or thrombin-activated platelets were incubated with various NBD-labelled RBCV formulations (equivalent NBD-PE of 1.0 × 10⁻⁷ mol). Free vesicles, which were not attached to platelets, were removed by centrifugation. Data for 1.0 × 10⁴ gated events were collected and analysed using a BD Fortessa II flow cytometer.

For series [12] the target is unchanged. Put plainly: MFI of confocal images of thrombin-activated platelets; reference is uncoated RBCVs.

These results are taken from patent publication US20230125052A1, “RED BLOOD CELL-DERIVED VESICLE” (Imperial College Innovations Limited, priority 2019, published 2023).

A word on the inhibition: it is the share of the control response that was lost under treatment. One may read the IC50 as the point on the concentration scale where inhibition reaches its midpoint. A lower IC50 goes with greater potency in that assay.

Square brackets hold non-standard residues; d marks the D form. Side chains are listed from the residue outwards. Ends that are not written are not given here. maleimidomethyl‑cyclohexane‑carboxamide = linker coupling the Cys to DSPE; DSPE = DSPE lipid anchoring the peptide in the vesicle membrane

T1 sequence (chain, as listed by the source, chain 1 of 2): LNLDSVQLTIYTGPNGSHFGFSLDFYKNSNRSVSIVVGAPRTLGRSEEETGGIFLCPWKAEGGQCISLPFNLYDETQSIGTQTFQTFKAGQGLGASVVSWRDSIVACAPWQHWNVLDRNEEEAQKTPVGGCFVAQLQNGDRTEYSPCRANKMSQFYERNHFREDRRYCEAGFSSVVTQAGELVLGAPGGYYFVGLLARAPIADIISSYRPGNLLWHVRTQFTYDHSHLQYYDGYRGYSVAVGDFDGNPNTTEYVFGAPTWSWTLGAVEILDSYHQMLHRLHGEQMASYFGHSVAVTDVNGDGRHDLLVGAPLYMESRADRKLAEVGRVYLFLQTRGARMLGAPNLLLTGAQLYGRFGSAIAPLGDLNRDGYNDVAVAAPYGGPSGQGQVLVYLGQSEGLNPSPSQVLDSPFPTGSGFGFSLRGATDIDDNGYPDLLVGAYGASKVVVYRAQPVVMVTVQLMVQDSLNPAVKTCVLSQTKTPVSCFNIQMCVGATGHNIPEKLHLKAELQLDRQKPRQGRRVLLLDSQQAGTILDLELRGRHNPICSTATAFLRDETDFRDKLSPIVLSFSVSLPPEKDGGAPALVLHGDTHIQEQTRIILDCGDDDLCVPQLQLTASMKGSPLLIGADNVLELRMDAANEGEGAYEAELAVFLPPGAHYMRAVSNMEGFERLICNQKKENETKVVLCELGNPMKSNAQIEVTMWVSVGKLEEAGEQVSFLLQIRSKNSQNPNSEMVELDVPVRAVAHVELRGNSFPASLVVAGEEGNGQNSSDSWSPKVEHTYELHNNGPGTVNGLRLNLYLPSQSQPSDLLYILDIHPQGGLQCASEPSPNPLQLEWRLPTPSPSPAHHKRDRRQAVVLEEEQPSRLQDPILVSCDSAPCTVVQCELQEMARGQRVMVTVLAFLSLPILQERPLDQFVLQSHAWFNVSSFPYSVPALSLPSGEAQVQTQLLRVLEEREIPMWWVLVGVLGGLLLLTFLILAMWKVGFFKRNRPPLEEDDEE
T1 sequence (chain, as listed by the source, chain 2 of 2): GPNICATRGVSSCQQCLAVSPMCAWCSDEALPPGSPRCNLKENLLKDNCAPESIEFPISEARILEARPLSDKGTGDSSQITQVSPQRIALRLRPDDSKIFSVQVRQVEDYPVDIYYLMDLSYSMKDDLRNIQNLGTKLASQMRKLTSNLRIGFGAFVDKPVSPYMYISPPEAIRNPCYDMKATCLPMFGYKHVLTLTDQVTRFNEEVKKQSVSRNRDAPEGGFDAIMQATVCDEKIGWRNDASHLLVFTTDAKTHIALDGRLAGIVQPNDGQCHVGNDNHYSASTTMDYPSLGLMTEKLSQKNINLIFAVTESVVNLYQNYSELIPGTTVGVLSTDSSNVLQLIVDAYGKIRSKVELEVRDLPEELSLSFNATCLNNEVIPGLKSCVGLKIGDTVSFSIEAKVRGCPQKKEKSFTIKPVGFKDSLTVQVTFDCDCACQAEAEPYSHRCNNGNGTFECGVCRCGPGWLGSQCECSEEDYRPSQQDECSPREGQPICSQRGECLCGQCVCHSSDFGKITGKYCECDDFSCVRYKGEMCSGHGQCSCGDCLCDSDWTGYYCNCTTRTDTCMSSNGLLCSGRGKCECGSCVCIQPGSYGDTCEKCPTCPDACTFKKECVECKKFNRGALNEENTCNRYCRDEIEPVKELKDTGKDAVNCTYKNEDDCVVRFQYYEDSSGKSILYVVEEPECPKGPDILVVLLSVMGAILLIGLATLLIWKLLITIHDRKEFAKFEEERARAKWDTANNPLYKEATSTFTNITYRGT
Sequence of active GPIIb-IIIa (αIIbβ3) integrin on thrombin-activated platelets (sheep) (chain, as listed by the source, chain 1 of 2): as the sequence (chain, as listed by the source, chain 1 of 2) above
Sequence of active GPIIb-IIIa (αIIbβ3) integrin on thrombin-activated platelets (sheep) (chain, as listed by the source, chain 2 of 2): as the sequence (chain, as listed by the source, chain 2 of 2) above

As for `CC(=O)Oc1ccccc1C(=O)O` [ASA, acetylsalicylic acid], the inhibition at 100 µM in series [1] came out at 27.6 ± 2.71%; in series [2], 23.8 ± 4.26%; in [3] it was 20.5 ± 1.04%. Besides, the Thrombus weight in [4] was 49.27 ± 10.73 mg.
`CC(C)[C@@H]1NC(=O)[C@@H](Cc2ccccc2)NC(=O)[C@H](CC(=O)O)NC(=O)CNC(=O)[C@H](CCCNC(=N)N)NC1=O` [cRGD, cyclo(Arg-Gly-Asp-d-Phe-Val)] gave an IC50 in [5] of 460 µM.
In turn, linear RGD peptide (Arg-Gly-Asp), free gave an IC50 (peptide concentration for 50% inhibition of fibrinogen-mediated platelet aggregation in PRP, thrombin 4 µM) in series [6] of 382 µM.
“tPA: Tissue plasminogen activator (tPA, alteplase), product of Boehringer Ingelheim”: in the series on fibrin clot, the “Area of fibrin lysis ring” value turned out to be 1.18 ± 0.17 cm^2. In the series on Halo blood clots, the “Blood clot lysis (in words)” value was “complete blood clot lysis”. Besides, in series [7], the Half-life was 2~6 min.

B1: cyclo(Arg-Gly-Asp-d-Phe-Val), free (peptide)
peptide: cyclo(RGD[dF]V)
B1: in [8], the “IC50 (peptide concentration for 50% inhibition of fibrinogen-mediated platelet aggregation in PRP, thrombin 4 µM)” value came to 460 µM.

B2: tPA-loaded, RGD-coated red blood cell-derived vesicles (tPA-RGD-RBCVs) (other)
peptide: C([maleimidomethyl‑cyclohexane‑carboxamide-DSPE])RGD
modifications: also: many copies anchored in red blood cell-derived vesicle membrane, tPA encapsulated
notes: also called FITC-labelled tPA-RGD-RBCVs; fibrinogen-mimicking RBCV
Turning to B2, in series [9], the “fold increase in fluorescence intensity against FITC-labelled tPA-RBCVs” value was > 4 fold. Further, the “fold enhancement in binding affinity (MFI) against tPA-RBCVs” value in series [10] is ~4 fold.

B3: RGD-coated red blood cell-derived vesicles without drug (RGD-RBCVs) (other)
peptide: C([maleimidomethyl‑cyclohexane‑carboxamide-DSPE])RGD
notes: Vesicle labelled with NBD-PE for flow cytometry and CLSM, or with NBD-PE and Rhod-PE for FRET; also called NBD-labelled RGD-RBCVs
In the case of B3, the “fold increase in fluorescence intensity against NBD-labelled RBCVs” value in series [11] was > 4 fold. Moreover, the “fold enhancement in binding affinity (MFI) against RBCVs” value in series [12] was ~4 fold.
